These are literature values, as cited in patent US20250059333A1, “BILAYER BIONIC DRUG-LOADED HYDROGEL, AND PREPARATION AND APPLICATION THEREOF” (Chengdu Hengkui Biotechnology Co., Ltd., priority 2022, published 2025).

For this data set the following is noted: relative to glutaraldehyde, a commonly used chemical cross-linking agent.

For the compound `COC(=O)C1=CO[C@@H](O)[C@@H]2C(CO)=CC[C@H]12` [genipin], the “toxicity lower than that of glutaraldehyde” value was 10000 times.
